The values that follow come from US9205050B2, “Antibiotic formulations, unit doses, kits and methods” (Bayer Intellectual Property GmbH, priority 2005, dated 2015).

Series [1] is described as follows: density of Vancomycin HCl solutions. Type of series: physicochemical. The method, then:
On the final solution, pH and density were measured and appearance was evaluated. […]

Series [2] can be described thus: pH of Vancomycin HCl solutions, bulk solution and reconstituted lyophilizate. Type of series: physicochemical. The method, then:
[…] On the final solution, pH and density were measured and appearance was evaluated. After lyophilization the following analyses were performed on the final product: • water content by Karl Fischer titration; • appearance of the cake, • reconstitution time, • appearance/clarity, • pH after reconstitution.

Series [3] in a line: 14-consecutive day face mask inhalation toxicity and recovery. Type of series: in vivo, dog. Conditions: both sexes, beagle, dog, in vivo, inhaled, high exposure level (60 min). The method, then: (§1) This Example involved evaluating the potential toxicity and recovery resulting from a 14-consecutive day, face mask inhalation administration of vancomycin hydrochloride to beagle dogs.
(§2) Within 2 hours prior to usage, a vancomycin nebulizer solution having a concentration of 120 mg/ml was formed by dissolving vancomycin hydrochloride (available from Alpharma, Copenhagen, Denmark) in sterile water for injection USP (available from B. Braun Medical Inc., Bethlehem, Pa.). The solution was used to generate aerosolized vancomycin for all vancomycin exposure groups.
(§3) The exposure system consisted of a single, cylindrical, plexiglass inhalation chamber (volume of ˜23.7 L, 14.61-cm radius, 35.56-cm height). The chamber was supplied with two Aerotech II nebulizers operated at ˜40 psi. Nebulized test article and nebulizer air supply was diluted with ˜10 L/min HEPA-filtered dilution air. The flow through the system was ˜36 L/min.
(§4) The aerosolized vancomycin was administered via a face mask to 3 groups of male and female beagle dogs for durations of 15 min (Low), 30 min (Mid), and 60 min (High). A control group was exposed for 60 min to aerosols generated from normal saline solution, i.e., 0.9% sodium chloride injection USP (available from B. Braun Medical Inc.).
(§5) Groups of dogs from the Control and High level 14-day exposures were also studied following a 14-day recovery period. Endpoints for all groups of dogs included physical examinations, clinical observations, body weights, opthalmology, cardiovascular EKG, clinical pathology (hematology, clinical chemistry), urinalyses, organ weights, histopathology, and toxicokinetics.

In series [4] the test system is beagle dogs. The series is described as above. It is filed as in vivo, dog. Here is the method: as §1, §2, §3, §4, §5
Series [5] can be described thus: solubility study of Vancomycin HCl in water (saturated solution, UV 280 nm). Conditions: thermodynamic from solid, water for injection, stirred 48 h, filtered, read-out: maximum solubility in water. Type of series: physicochemical. The method, then: A saturated solution of Vancomycin HCl in water for injection was prepared by adding under stirring the active agent to the solvent.
Suspension was stirred for 48 h in order to reach the equilibrium conditions for the dissolution.
Suspensions was filtered first through a paper filter and then through a 0.45 μm PVDF filter discarding the first drops of solution which could have been diluted because of the binding of the product to the membrane.
The filtrated solutions of Vancomycin HCl in water coming from the respective saturated solutions, was diluted to reach a final concentration which gave an Abs value at λ=280 nm included into the calibration curve.
Each diluted solution was analysed in triplicate with UV at λ=280 nm. For each solution the absorbances have been mediated and the final value has been substituted in the respective calibration curve equation to calculate the concentration.

A short description of series [6]: particle size distribution of nebulized aerosol, laser diffraction. Type of series: physicochemical. Conditions: solutions in WFI 60 to 140 mg/ml, fill 2 to 4 ml.
Procedure: Droplet size distributions for aerosolized drug and placebo solutions were measured using the Sympatec HELOS laser diffraction spectrometer. In preparation for a run, the nebulizer was connected to the compressed air line, the flow turned on and the pressure regulator set to a driving pressure to generate a flow rate of 8 LPM through the nebulizer. The flow was then turned off by closing the flow shut-off valve. Next, the nebulizer was connected to a “T” piece with one port plugged, and the other port coupled to a mouthpiece. The nebulizer was then filled with drug solution, and mounted so that nebulizer mouthpiece was aligned parallel to the nozzle of the Rodos dry powder disperser apparatus already installed in the spectrometer. The laser diffraction system was setup to automatically trigger when it sensed the presence of the aerosol generated by the nebulizer. Measurements were initiated by opening the shut-off valve to pressurize the nebulizer and generate the aerosol. A total of 6 particle size distribution scans were taken for each nebulizer run, and then averaged to provide representative size distribution results.
In series [7] the test system is CD rats. Put plainly: 14-consecutive day nose-only inhalation toxicity and recovery. Type of series: in vivo, rat. The method, then:
This Example involved evaluating the potential toxicity and recovery resulting from a 14-consecutive day, nose-only inhalation administration of vancomycin hydrochloride (vancomycin) to CD rats.
The solution was used to generate aerosolized vancomycin for all vancomycin exposure groups.
Nose-only exposures were conducted in a “flow-past” cylindrical inhalation chamber placed inside a steel-framed Plexiglas secondary containment box. The chamber contained 48 animal ports, each compatible with a single nose-only exposure tube, aerosol concentration sampling device (e.g., filter), or oxygen monitor.
The total air flow through the exposure system was balanced to achieve individual animal port flows of ˜500 mL/min (port flow approximated based on total chamber flow). Measured flows included sample flow rate, nebulizer flow rate, dilution flow rate (chamber make-up air), and chamber exhaust flow.
Vancomycin solution was aerosolized with two Aerotech II nebulizers operated at 20 psi driving pressure. The target aerosol Vancomycin concentration for all exposure levels was ˜1.0 mg/L.
Aerosolized vancomycin was administered to 3 groups of male and female CD rats (available from Charles River Laboratories, Kingston, N.Y.) for durations of 30 min (Low), 90 min (Mid), and 180 min (High). A control group was exposed for 180 min to aerosols generated from a normal saline solution. Groups of rats from the Control and High level 14-day exposures were also studied following a 14-day recovery period. Endpoints included clinical observations, body weights, clinical pathology (hematology, clinical chemistry), urinalyses, organ weights, and histopathology.

Series [8] is described as follows: osmolality of gentamicin sulfate solutions. It is filed as physicochemical. Here is the method: Solubility in water was determined via visual assessment. Osmolality and pH were also determined. […] The solubility was determined by visual assessment.
The mark [9] stands for this setting: exposure aerosol from 120 mg/ml solution.

Counter-ions that a name gives are not always drawn. Like-named read-outs stand apart in the source and are kept apart here.

As usually defined, the NOAEL is the highest tested level that showed no adverse finding. The term solubility denotes how much of the substance goes into solution per volume. Take `CN[C@H](CC(C)C)C(=O)N[C@H]1C(=O)N[C@@H](CC(N)=O)C(=O)N[C@H]2C(=O)N[C@H]3C(=O)N[C@H](C(=O)N[C@H](C(=O)O)c4cc(O)cc(O)c4-c4cc3ccc4O)[C@H](O)c3ccc(c(Cl)c3)Oc3cc2cc(c3O[C@@H]2O[C@H](CO)[C@@H](O)[C@H](O)[C@H]2O[C@H]2C[C@](C)(N)[C@H](O)[C@H](C)O2)Oc2ccc(cc2Cl)[C@H]1O` [Vancomycin HCl, vancomycin hydrochloride]: the Density in series [1] (100.12 mg/mL in water) is on record as 1.027 g/mL; in series [1] (110.16 mg/mL in water) it was 1.034 g/mL; in series [1] (120.26 mg/mL in water), 1.037 g/mL; in series [1] (130.5 mg/mL in water) it was 1.042 g/mL; in series [1] (140.8 mg/mL in water) it was 1.046 g/mL. In addition, the pH in series [2] (100.12 mg/mL in water) is given as 3.8-4.1; in series [2] (110.16 mg/mL in water), 3.7-3.9; in series [2] (120.26 mg/mL in water) it was 3.6-3.8; in series [2] (130.5 mg/mL in water) it was 3.5-3.7; in series [2] (140.8 mg/mL in water) it was 3.4-3.5. Also, the NOAEL at 14 days is 9 mg/kg in series [3] (read-out: no observed adverse effect level (NOAEL), deposited lung dose) and 45 mg/kg in series [3] (read-out: no observed adverse effect level (NOAEL), inhaled dose). The “recovery of histopathological effects” value in series [4] (14-day recovery, High level) is “complete after 14 days”. Also, the tolerability of exposures entry in series [4] (15, 30, 60 min/day, 14 days, about 1.4-1.5 mg/L) was “well-tolerated”; in series [7] (30, 90, 180 min/day, 14 days, about 1.2 mg/L), “well-tolerated”. Besides, the “physical examinations, clinical observations, opthalmology, ECG, hematology, clinical chemistry, urinalyses, gross necropsy, organ weights” value in series [4] (all exposure levels) is recorded as “no vancomycin related effects”. Besides, the survival entry in series [4] (all exposure levels, 14 days) is given as “All dogs survived to scheduled necropsy”; in series [7] (all exposure levels, 14 days), “All rats survived to scheduled necropsy”. In series [4] (end of 14-day exposure), the “effects of exposure in histopathology” value is given as “limited to microscopic findings in the lung”. Also, the results for the “mean particle size, mass median aerodynamic diameter” value in series [4] (setting [9]) and in series [7] (setting [9]) were 1.9-2.6 μm and 2.0-2.6 μm, respectively. In addition, in series [5], the solubility at 48 h is 141 mg/mL. Moreover, the “volume weighted median size” value in series [6] is given as 2-3 μm. Also, the “no observed effect level” value in series [7] (14-day inhalation) is recorded as “not established”. The lung weight increase in series [7] (High exposure level (180 min)) is ~19 % of control; in series [7] (Low exposure level (30 min)), “approximately 8 % of control”; in series [7] (Mid exposure level (90 min)), ~20 % of control. Further, the “increase in aspartate aminotransferase (AST) values” in series [7] (Mid and High exposure levels) was 28-46%. Also, the “neutrophils (hematology)” value in series [7] (Mid and High exposure levels) is “statistically significant increase”. The “histopathologic findings after recovery” value in series [7] (after 14 days of recovery, High level) is “substantial diminution of these findings”. Also, the body weight result in series [7] (all exposure levels) is “no vancomycin treatment related effects”. Further, the clinical observations entry in series [7] (all exposure levels) is recorded as “no vancomycin related effects”. The “serum indicators of kidney function or urinalysis” value in series [7] (all exposure levels) is reported as “No vancomycin related changes”. Moreover, in series [7] (end of 14-day exposure), the “exposure related histopathologic findings” value is given as “limited to the respiratory tract”.
With gentamicin sulfate, the Osmolality in series [8] (20 mg/ml active in 0.9% saline) amounted to 318 mOsmol/kg; in series [8] (20 mg/ml active in WFI), 61 mOsmol/kg; in series [8] (40 mg/ml active in 0.9% saline), 353 mOsmol/kg; in series [8] (40 mg/ml active in WFI) it was 101 mOsmol/kg; in series [8] (80 mg/ml active in 0.9% saline), 445 mOsmol/kg; in series [8] (80 mg/ml active in WFI), 197 mOsmol/kg. In addition, the Osmolality is 275 mOsmol/kg in series [8] (120 mg/ml active in WFI), 524 mOsmol/kg in series [8] (200 mg/ml active in WFI), 1178 mOsmol/kg in series [8] (250 mg/ml active in WFI) and 2013 mOsmol/kg in series [8] (300 mg/ml active in WFI).
